The source of these data is ChEMBL document CHEMBL6087436, “The novel β-hairpin antimicrobial peptide D-G(RF)3 demonstrates exceptional antibacterial efficacy” (Eur J Med Chem, 2025).

Values after ≈ are worked out from the molar mass of the structure shown. Active and inactive are the calls of the source. The rule behind the calls is not given here. Where a SMILES comes first, the peptide text is derived from it. [ ]: non-standard residue; d: D form.

Data set [1] is described as follows: Retention time of the compound by RP-HPLC analysis. The format is physicochemical.
Data set [2] concerns Staphylococcus aureus. Briefly: Antibacterial activity against Staphylococcus aureus ATCC 25923 assessed as inhibition of bacterial growth incubated for 18 hrs by microbroth dilution assay. The format is functional. In general terms: In broth dilution the organism is exposed to a series of concentrations in liquid medium.
In data set [3] the test system is Bacillus subtilis. Put plainly: Antibacterial activity against Bacillus subtilis ATCC 23857 assessed as inhibition of bacterial growth incubated for 18 hrs by microbroth dilution assay. It counts as functional.
The test system of data set [4] is Staphylococcus epidermidis. Put plainly: Antibacterial activity against Staphylococcus epidermidis ATCC 12228 assessed as inhibition of bacterial growth incubated for 18 hrs by microbroth dilution assay. The format is functional.
The subject of data set [5] is Klebsiella pneumoniae. Put plainly: Antibacterial activity against Klebsiella pneumoniae ATCC 700603 assessed as inhibition of bacterial growth incubated for 18 hrs by microbroth dilution assay. The format is functional.
In data set [6] the test system is Escherichia coli. Put plainly: Antibacterial activity against Escherichia coli ATCC 25922 assessed as inhibition of bacterial growth incubated for 18 hrs by microbroth dilution assay. It counts as functional.
Data set [7] concerns Pseudomonas aeruginosa. Put plainly: Antibacterial activity against Pseudomonas aeruginosa ATCC 27853 assessed as inhibition of bacterial growth incubated for 18 hrs by microbroth dilution assay. The format is functional.
Data set [8] in a line: Hemolytic activity in Kunming mouse erythrocytes assessed as hemolysis incubated for 1 hr by multimode reader analysis. It counts as toxicity, cell-based. The note with it: erythrocyte.
Data set [9] has as its system Cell membrane. Put plainly: Induction of Cytoplasmic membrane depolarization in Staphylococcus aureus at 3.75 uM measured for every 10 mins by DiSC3(5) dye based fluorescence method.
Data set [10] can be described thus: Hemolytic activity in Kunming mouse erythrocytes assessed as hemolytic rate at 256 uM incubated for 1 hr by multimode reader analysis relative to control. The note with it: read-out: Activity. It counts as toxicity, cell-based, Erythrocyte.
Data set [11] deals with Pseudomonas aeruginosa. Put plainly: Induction of drug resistance in Pseudomonas aeruginosa ATCC 27853 assessed as fold increase in MIC incubated for 24 hrs and measured under 40 passages. It counts as functional.
The subject of data set [12] is Cell membrane. Briefly: Induction of cell membrane permeability in Staphylococcus aureus assessed as bacterial dissolve at 2 times MIC by SEM analysis. It counts as subcellular.

For orientation: MIC means the lowest concentration found to suppress growth. In data set [1], `NCCCC[C@H](NC(=O)CNC(=O)[C@H]1CCCN1C(=O)[C@H](CCCCN)NC(=O)[C@H](Cc1c[nH]c2ccccc12)NC(=O)[C@H](CCCCN)NC(=O)[C@H](Cc1c[nH]c2ccccc12)NC(=O)[C@H](CCCCN)NC(=O)[C@@H](N)Cc1c[nH]c2ccccc12)C(=O)N[C@@H](Cc1c[nH]c2ccccc12)C(=O)N[C@@H](CCCCN)C(=O)N[C@@H](Cc1c[nH]c2ccccc12)C(=O)N[C@@H](CCCCN)C(=O)N[C@@H](Cc1c[nH]c2ccccc12)C(N)=O` (H-WKWKWK[dP]GKWKWKW-NH2) registered a Retention_time of 14.49 min. The minimum inhibitory concentration (MIC) in data set [2] was 8 µM (≈ 16.5 µg/mL); in data set [3], 2 µM (≈ 4.12 µg/mL); in data set [4], 4 µM (≈ 8.23 µg/mL); in data set [5] it was 16 µM (≈ 32.9 µg/mL); in [6], 8 µM (≈ 16.5 µg/mL); in [7] it was 4 µM (≈ 8.23 µg/mL). The MHC10 in [8] is above 256 µM.

`CC[C@H](C)[C@H](N)C(=O)N[C@@H](CCCNC(=N)N)C(=O)N[C@H](C(=O)N[C@@H](CCCNC(=N)N)C(=O)N1CCC[C@@H]1C(=O)NCC(=O)N[C@@H](CCCNC(=N)N)C(=O)N[C@H](C(=O)N[C@@H](CCCNC(=N)N)C(=O)N[C@H](C(N)=O)[C@@H](C)CC)[C@@H](C)CC)[C@@H](C)CC` gave a Retention_time in data set [1] of 12.103 min. The minimal inhibitory concentration (MIC) is 128 µM (≈ 160 µg/mL) in [2]; 32 µM (≈ 40 µg/mL) in data set [3]; 64 µM (≈ 79.9 µg/mL) in data set [4]; above 128 µM in [5]; 128 µM (≈ 160 µg/mL) in [6]; 128 µM (≈ 160 µg/mL) in data set [7]. Besides, the MHC10 in data set [8] was above 256 µM.

For `CC(C)[C@@H]1NC(=O)[C@H](C)OC(=O)[C@@H](C(C)C)NC(=O)[C@@H](C(C)C)OC(=O)[C@H](C(C)C)NC(=O)[C@H](C)OC(=O)[C@@H](C(C)C)NC(=O)[C@@H](C(C)C)OC(=O)[C@H](C(C)C)NC(=O)[C@H](C)OC(=O)[C@@H](C(C)C)NC(=O)[C@@H](C(C)C)OC1=O`, the outcome in data set [9] was Active.

For `CC[C@H](C)[C@H](N)C(=O)N[C@@H](CCCNC(=N)N)C(=O)N[C@H](C(=O)N[C@@H](CCCNC(=N)N)C(=O)N[C@H](C(=O)N[C@@H](CCCNC(=N)N)C(=O)N1CCC[C@@H]1C(=O)NCC(=O)N[C@@H](CCCNC(=N)N)C(=O)N[C@H](C(=O)N[C@@H](CCCNC(=N)N)C(=O)N[C@H](C(=O)N[C@@H](CCCNC(=N)N)C(=O)N[C@H](C(N)=O)[C@@H](C)CC)[C@@H](C)CC)[C@@H](C)CC)[C@@H](C)CC)[C@@H](C)CC`, the Retention_time in data set [1] was 13.442 min. Also, the minimal inhibitory concentration (MIC) in [2] worked out at 8 µM (≈ 14.3 µg/mL); in [3], 2 µM (≈ 3.57 µg/mL); in [4], 8 µM (≈ 14.3 µg/mL); in [5] it was 16 µM (≈ 28.6 µg/mL); in data set [6], 16 µM (≈ 28.6 µg/mL); in data set [7], 4 µM (≈ 7.15 µg/mL). For the same compound, in data set [8], the MHC10 stood at 512 µM. Further, in [10], the hemolysis at 1 h, 256 µM amounted to 4.1%.

As to `O=C(O)c1cn(C2CC2)c2cc(N3CCNCC3)c(F)cc2c1=O` [CIPROFLOXACIN], the MIC in data set [2] was 8 µM (≈ 2.65 µg/mL); in data set [3] it was 2 µM (≈ 0.663 µg/mL); in data set [4] it was 8 µM (≈ 2.65 µg/mL); in [5], 8 µM (≈ 2.65 µg/mL); in data set [6] it was below 1 µM; in [7] it was 2 µM (≈ 0.663 µg/mL). In data set [11], the “fold change (FC)” value is above 128. In [12], the result was Active.

`N=C(N)NCCC[C@H](NC(=O)[C@H](Cc1ccccc1)NC(=O)[C@H](CCCNC(=N)N)NC(=O)[C@H](Cc1ccccc1)NC(=O)[C@H](CCCNC(=N)N)NC(=O)CNC(=O)[C@H]1CCCN1C(=O)[C@H](CCCNC(=N)N)NC(=O)[C@H](Cc1ccccc1)NC(=O)[C@H](CCCNC(=N)N)NC(=O)[C@H](Cc1ccccc1)NC(=O)[C@@H](N)CCCNC(=N)N)C(N)=O` came in with a Retention_time in [1] of 12.628 min. Besides, the MIC in data set [2] stood at 16 µM (≈ 27.2 µg/mL); in data set [3], 4 µM (≈ 6.79 µg/mL); in data set [4], 4 µM (≈ 6.79 µg/mL); in data set [5], 16 µM (≈ 27.2 µg/mL); in data set [6] it was 8 µM (≈ 13.6 µg/mL); in data set [7], 16 µM (≈ 27.2 µg/mL). The MHC10 in [8] is above 256 µM.

In data set [1], `NCCCC[C@H](NC(=O)CNC(=O)[C@H]1CCCN1C(=O)[C@H](CCCCN)NC(=O)[C@H](Cc1c[nH]c2ccccc12)NC(=O)[C@H](CCCCN)NC(=O)[C@@H](N)Cc1c[nH]c2ccccc12)C(=O)N[C@@H](Cc1c[nH]c2ccccc12)C(=O)N[C@@H](CCCCN)C(=O)N[C@@H](Cc1c[nH]c2ccccc12)C(N)=O` (H-WKWK[dP]GKWKW-NH2) displayed a Retention_time of 13.817 min. In addition, the minimum inhibitory concentration (MIC) is 64 µM (≈ 91.4 µg/mL) in data set [2]; 8 µM (≈ 11.4 µg/mL) in [3]; 8 µM (≈ 11.4 µg/mL) in data set [4]; above 128 µM in data set [5]; 64 µM (≈ 91.4 µg/mL) in [6]; 8 µM (≈ 11.4 µg/mL) in [7]. The MHC10 in data set [8] is above 256 µM.

Take `CC[C@H](C)[C@H](NC(=O)[C@H](CCCNC(=N)N)NC(=O)[C@@H](NC(=O)[C@H](CCCNC(=N)N)NC(=O)CNC(=O)[C@H]1CCCN1C(=O)[C@H](CCCNC(=N)N)NC(=O)[C@@H](NC(=O)[C@H](CCCNC(=N)N)NC(=O)[C@@H](NC(=O)[C@@H](N)CCCNC(=N)N)[C@@H](C)CC)[C@@H](C)CC)[C@@H](C)CC)C(=O)N[C@@H](CCCNC(=N)N)C(N)=O`: in [1], the Retention_time was 11.367 min. Also, the MIC in data set [2] was found to be 32 µM (≈ 50 µg/mL); in [3] it was 4 µM (≈ 6.24 µg/mL); in [4] it was 8 µM (≈ 12.5 µg/mL); in [5], 32 µM (≈ 50 µg/mL); in [6], 16 µM (≈ 25 µg/mL); in [7], 16 µM (≈ 25 µg/mL). In addition, in [8], the MHC10 was above 256 µM.
